Experimental data from the supplement of paper PMC10307832.

What was measured:
Experiment in all cases: relative viability (nuclei count vs DMSO), 5 days (fraction); higher = more cells survive
NCI-H1299 = test system: NCI-H1299
Procedure, shortened: (§1)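 Nuclei were stained with Hoechst during a one-step fixation (final 0.05% Triton X-100, 1% formaldehyde, 1 ug/ml Hoechst) carried out 5 days after dosing, then counted on 4× images. The cells, lung cancer lines in 1536-well plates, had been dosed by pin tool the day after seeding with one drug alone or a fixed anchor-drug dose plus five library-drug doses (not always all listed) in √10 steps. Relative viability is the nuclei count in treated wells divided by that in vehicle wells, and each value is the median of duplicate plates.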

A549 = test system: A549
Procedure, shortened: as §1

NCI-H2405 = test system: NCI-H2405
Procedure, shortened: as §1

NCI-H2009 = test system: NCI-H2009
Procedure, shortened: as §1

NCI-H647 = test system: NCI-H647
Procedure, shortened: as §1

LOU-NH91 = test system: LOU-NH91
Procedure, shortened: as §1

NCI-H1703 = test system: NCI-H1703
Procedure, shortened: as §1

IA-LM = test system: IA-LM
Procedure, shortened: as §1

EBC-1 = test system: EBC-1
Procedure, shortened: as §1

Calu-6 = test system: Calu-6
Procedure, shortened: as §1

## CCNC(=O)c1noc(-c2cc(C(C)C)c(O)cc2O)c1-c1ccc(CN2CCOCC2)cc1 [Luminespib] + CC1(C)CCC(c2ccc(Cl)cc2)=C(CN2CCN(c3ccc(C(=O)NS(=O)(=O)c4ccc(N[C@H](CCN5CCOCC5)CSc5ccccc5)c(S(=O)(=O)C(F)(F)F)c4)cc3)CC2)C1 [Navitoclax] (partner 0.5 µM)
NCI-H1299; first compound 0.002 µM
  relative viability: 1.03
NCI-H1299; first compound 0.006325 µM
  relative viability: 1.01
NCI-H1299; first compound 0.02 µM
  relative viability: 1.07
NCI-H1299; first compound 0.06325 µM
  relative viability: 0.975
NCI-H1299; first compound 0.2 µM
  relative viability: 0.295
A549; first compound 0.002 µM
  relative viability: 1.22
A549; first compound 0.006325 µM
  relative viability: 1.15
A549; first compound 0.02 µM
  relative viability: 1.11
A549; first compound 0.06325 µM
  relative viability: 0.0452
A549; first compound 0.2 µM
  relative viability: 0.0433
NCI-H2405; first compound 0.002 µM
  relative viability: 0.925
NCI-H2405; first compound 0.006325 µM
  relative viability: 0.583
NCI-H2405; first compound 0.02 µM
  relative viability: 0.704
NCI-H2405; first compound 0.06325 µM
  relative viability: 0.188
NCI-H2405; first compound 0.2 µM
  relative viability: 0.143
NCI-H2009; first compound 0.002 µM
  relative viability: 1.17
NCI-H2009; first compound 0.006325 µM
  relative viability: 1.08
NCI-H2009; first compound 0.02 µM
  relative viability: 1.21
NCI-H2009; first compound 0.06325 µM
  relative viability: 0.72
NCI-H2009; first compound 0.2 µM
  relative viability: 0.0895
NCI-H647; first compound 0.002 µM
  relative viability: 1.23
NCI-H647; first compound 0.006325 µM
  relative viability: 1.06
NCI-H647; first compound 0.02 µM
  relative viability: 1.18
NCI-H647; first compound 0.06325 µM
  relative viability: 0.0943
NCI-H647; first compound 0.2 µM
  relative viability: 0.0973
LOU-NH91; first compound 0.002 µM
  relative viability: 0.692
LOU-NH91; first compound 0.006325 µM
  relative viability: 0.707
LOU-NH91; first compound 0.02 µM
  relative viability: 0.49
LOU-NH91; first compound 0.06325 µM
  relative viability: 0.257
LOU-NH91; first compound 0.2 µM
  relative viability: 0.256
NCI-H1703; first compound 0.002 µM
  relative viability: 1.34
NCI-H1703; first compound 0.006325 µM
  relative viability: 0.925
NCI-H1703; first compound 0.02 µM
  relative viability: 0.371
NCI-H1703; first compound 0.06325 µM
  relative viability: 0.147
NCI-H1703; first compound 0.2 µM
  relative viability: 0.138
IA-LM; first compound 0.002 µM
  relative viability: 0.752
IA-LM; first compound 0.006325 µM
  relative viability: 0.792
IA-LM; first compound 0.02 µM
  relative viability: 0.549
IA-LM; first compound 0.06325 µM
  relative viability: 0.061
IA-LM; first compound 0.2 µM
  relative viability: 0.058
EBC-1; first compound 0.002 µM
  relative viability: 0.489
EBC-1; first compound 0.006325 µM
  relative viability: 0.488
EBC-1; first compound 0.02 µM
  relative viability: 0.241
EBC-1; first compound 0.06325 µM
  relative viability: 0.142
EBC-1; first compound 0.2 µM
  relative viability: 0.133
Calu-6; first compound 0.002 µM
  relative viability: 0.836
Calu-6; first compound 0.006325 µM
  relative viability: 0.772
Calu-6; first compound 0.02 µM
  relative viability: 1.08
Calu-6; first compound 0.06325 µM
  relative viability: 0.116
Calu-6; first compound 0.2 µM
  relative viability: 0.107

## Nc1cccc2c1CN(C1CCC(=O)NC1=O)C2=O (centres undefined) [Lenalidomide] + Cc1nc(NC(=O)N2CCC[C@H]2C(N)=O)sc1-c1ccnc(C(C)(C)C(F)(F)F)c1 [Alpelisib] (partner 2 µM)
NCI-H1299; first compound 0.253 µM
  relative viability: 1.03
NCI-H1299; first compound 0.8 µM
  relative viability: 1.1
NCI-H1299; first compound 2.53 µM
  relative viability: 1.06
NCI-H1299; first compound 8 µM
  relative viability: 1.09
A549; first compound 0.253 µM
  relative viability: 0.789
A549; first compound 0.8 µM
  relative viability: 0.765
A549; first compound 2.53 µM
  relative viability: 0.813
A549; first compound 8 µM
  relative viability: 0.702
NCI-H2405; first compound 0.253 µM
  relative viability: 0.672
NCI-H2405; first compound 0.8 µM
  relative viability: 0.83
NCI-H2405; first compound 2.53 µM
  relative viability: 0.843
NCI-H2405; first compound 8 µM
  relative viability: 0.563
NCI-H2009; first compound 0.253 µM
  relative viability: 1.1
NCI-H2009; first compound 0.8 µM
  relative viability: 1.12
NCI-H2009; first compound 2.53 µM
  relative viability: 1.19
NCI-H2009; first compound 8 µM
  relative viability: 1.21
NCI-H647; first compound 0.253 µM
  relative viability: 1.22
NCI-H647; first compound 0.8 µM
  relative viability: 1.14
NCI-H647; first compound 2.53 µM
  relative viability: 1.1
NCI-H647; first compound 8 µM
  relative viability: 1.12
LOU-NH91; first compound 0.253 µM
  relative viability: 0.686
LOU-NH91; first compound 0.8 µM
  relative viability: 0.762
LOU-NH91; first compound 2.53 µM
  relative viability: 0.73
LOU-NH91; first compound 8 µM
  relative viability: 0.662
NCI-H1703; first compound 0.253 µM
  relative viability: 0.253
NCI-H1703; first compound 0.8 µM
  relative viability: 0.276
NCI-H1703; first compound 2.53 µM
  relative viability: 0.366
NCI-H1703; first compound 8 µM
  relative viability: 0.354
IA-LM; first compound 0.253 µM
  relative viability: 0.716
IA-LM; first compound 0.8 µM
  relative viability: 0.735
IA-LM; first compound 2.53 µM
  relative viability: 0.797
IA-LM; first compound 8 µM
  relative viability: 0.75
EBC-1; first compound 0.253 µM
  relative viability: 0.787
EBC-1; first compound 0.8 µM
  relative viability: 0.798
EBC-1; first compound 2.53 µM
  relative viability: 0.907
EBC-1; first compound 8 µM
  relative viability: 1.01
Calu-6; first compound 0.253 µM
  relative viability: 0.945
Calu-6; first compound 0.8 µM
  relative viability: 0.946
Calu-6; first compound 2.53 µM
  relative viability: 1.08
Calu-6; first compound 8 µM
  relative viability: 1.02

## CN1CCN(CCOc2cc(OC3CCOCC3)c3c(Nc4c(Cl)ccc5c4OCO5)ncnc3c2)CC1 [Saracatinib] + Cc1nc(NC(=O)N2CCC[C@H]2C(N)=O)sc1-c1ccnc(C(C)(C)C(F)(F)F)c1 [Alpelisib] (partner 2 µM)
NCI-H1299; first compound 0.02 µM
  relative viability: 1.08
NCI-H1299; first compound 0.2 µM
  relative viability: 1.02
NCI-H1299; first compound 0.6325 µM
  relative viability: 1.14
NCI-H1299; first compound 2 µM
  relative viability: 1.1
A549; first compound 0.02 µM
  relative viability: 0.799
A549; first compound 0.2 µM
  relative viability: 0.718
A549; first compound 0.6325 µM
  relative viability: 0.861
A549; first compound 2 µM
  relative viability: 0.5
NCI-H2405; first compound 0.02 µM
  relative viability: 0.796
NCI-H2405; first compound 0.2 µM
  relative viability: 0.821
NCI-H2405; first compound 0.6325 µM
  relative viability: 0.413
NCI-H2405; first compound 2 µM
  relative viability: 0.284
NCI-H2009; first compound 0.02 µM
  relative viability: 1.16
NCI-H2009; first compound 0.2 µM
  relative viability: 1.14
NCI-H2009; first compound 0.6325 µM
  relative viability: 1.01
NCI-H2009; first compound 2 µM
  relative viability: 0.961
NCI-H647; first compound 0.02 µM
  relative viability: 1.09
NCI-H647; first compound 0.2 µM
  relative viability: 0.83
NCI-H647; first compound 0.6325 µM
  relative viability: 0.635
NCI-H647; first compound 2 µM
  relative viability: 0.36
LOU-NH91; first compound 0.02 µM
  relative viability: 0.683
LOU-NH91; first compound 0.2 µM
  relative viability: 0.5
LOU-NH91; first compound 0.6325 µM
  relative viability: 0.554
LOU-NH91; first compound 2 µM
  relative viability: 0.449
NCI-H1703; first compound 0.02 µM
  relative viability: 0.321
NCI-H1703; first compound 0.2 µM
  relative viability: 0.243
NCI-H1703; first compound 0.6325 µM
  relative viability: 0.189
NCI-H1703; first compound 2 µM
  relative viability: 0.184
IA-LM; first compound 0.02 µM
  relative viability: 0.93
IA-LM; first compound 0.6325 µM
  relative viability: 1.44
IA-LM; first compound 2 µM
  relative viability: 0.958
EBC-1; first compound 0.02 µM
  relative viability: 0.929
EBC-1; first compound 0.2 µM
  relative viability: 0.764
EBC-1; first compound 0.6325 µM
  relative viability: 0.898
EBC-1; first compound 2 µM
  relative viability: 0.906
Calu-6; first compound 0.02 µM
  relative viability: 1.02
Calu-6; first compound 0.2 µM
  relative viability: 0.683
Calu-6; first compound 0.6325 µM
  relative viability: 0.721
Calu-6; first compound 2 µM
  relative viability: 0.76
